This is an account of results in PubChem BioAssay (NCI).

Test systems include ACHN renal; CAKI-1 renal; CCRF-CEM leukemia; EKVX NSCLC; HCT-15 colon; HOP-92 NSCLC; K-562 leukemia; LOX IMVI melanoma; MDA-MB-231 breast; NCI/ADR-RES ovarian; OVCAR-3 ovarian; OVCAR-5 ovarian; OVCAR-8 ovarian; RXF 393 renal; SF-539 CNS; SK-MEL-2 melanoma; SK-OV-3 ovarian; T-47D breast; TK-10 renal; UO-31 renal.
What all share (experiment): NCI-60 cell line screen, 48 h

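Interpolation was linear, between the two tested concentrations surrounding the appropriate level; five concentrations were tested over 48 hours in 96-well plates. TGI denotes the concentration required for complete inhibition of growth.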 Some results are limits rather than exact numbers.

Take `Cc1nnc2sc(-c3ccc(-c4ccccc4Cl)o3)nn12`: the TGI was more than 100 µM in the assay with ACHN renal; more than 100 µM with CAKI-1 renal; more than 100 µM in the assay with CCRF-CEM leukemia; more than 100 µM in the assay with EKVX NSCLC; 86 µM in the assay on HCT-15 colon; more than 100 µM in the assay with HOP-92 NSCLC. Further, the TGI in the assay on K-562 leukemia was 56.8 µM; in the assay with LOX IMVI melanoma, 53.2 µM; in the assay on MDA-MB-231 breast, more than 100 µM; with NCI/ADR-RES ovarian it was 52.8 µM; with OVCAR-3 ovarian it was 84.7 µM; in the assay with OVCAR-5 ovarian it was more than 100 µM. Besides, the TGI in the assay on OVCAR-8 ovarian is 53.1 µM; in the assay with RXF 393 renal it was more than 100 µM; in the assay on SF-539 CNS, 45.9 µM; in the assay with SK-MEL-2 melanoma it was 86.7 µM; with SK-OV-3 ovarian, more than 100 µM; in the assay on T-47D breast, 91.6 µM. The TGI with TK-10 renal and with UO-31 renal was more than 100 µM in each case.
As for `CCN1C(=O)C(=Cc2ccc(-c3ccccc3)cc2)C(=O)N(CC)C1=S`, the TGI with ACHN renal, in the assay on CAKI-1 renal, in the assay with CCRF-CEM leukemia, in the assay with EKVX NSCLC, in the assay with HCT-15 colon and in the assay on HOP-92 NSCLC was more than 100 µM throughout. For the same compound, the TGI with K-562 leukemia, with LOX IMVI melanoma, with MDA-MB-231 breast, with NCI/ADR-RES ovarian, in the assay on OVCAR-3 ovarian and in the assay on OVCAR-5 ovarian was more than 100 µM in each case. The TGI in the assay with OVCAR-8 ovarian, in the assay with RXF 393 renal, with SF-539 CNS, in the assay with SK-MEL-2 melanoma, in the assay with SK-OV-3 ovarian and with T-47D breast was more than 100 µM in each case. Also, the TGI in the assay on TK-10 renal and in the assay on UO-31 renal was more than 100 µM each time.
For the compound `CCc1cc2c(cc1CCCC(=O)O)CC1(Cc3ccc(C(=O)O)cc3C1)C2` (stereo not given), the TGI with ACHN renal, with CAKI-1 renal, in the assay on CCRF-CEM leukemia, with EKVX NSCLC, in the assay on HCT-15 colon and with HOP-92 NSCLC was more than 100 µM in each case. Further, the TGI in the assay with K-562 leukemia, with LOX IMVI melanoma, in the assay with MDA-MB-231 breast, with NCI/ADR-RES ovarian, with OVCAR-3 ovarian and with OVCAR-5 ovarian was more than 100 µM each time. For the same compound, the TGI with OVCAR-8 ovarian, in the assay on RXF 393 renal, with SF-539 CNS, with SK-MEL-2 melanoma, in the assay on SK-OV-3 ovarian and in the assay with T-47D breast was more than 100 µM each time. Moreover, the TGI with TK-10 renal and in the assay with UO-31 renal was more than 100 µM throughout.
On to `CC(=O)Nc1ccc(N2C(=O)/C(=C\c3cccc(Oc4ccccc4)c3)SC2c2ccccc2)cc1` (stereo not given), for which the TGI with ACHN renal is more than 100 µM; with CAKI-1 renal it was more than 100 µM; in the assay with CCRF-CEM leukemia it was 41.1 µM; in the assay with EKVX NSCLC, more than 100 µM; with HCT-15 colon, more than 100 µM; in the assay on HOP-92 NSCLC it was 40.2 µM. Moreover, the TGI was more than 100 µM in the assay on K-562 leukemia; 34.3 µM with LOX IMVI melanoma; more than 100 µM in the assay with MDA-MB-231 breast; more than 100 µM with NCI/ADR-RES ovarian; more than 100 µM with OVCAR-3 ovarian; more than 100 µM in the assay on OVCAR-5 ovarian. The TGI was 34.8 µM in the assay with OVCAR-8 ovarian; more than 100 µM in the assay on RXF 393 renal; 33.4 µM in the assay on SF-539 CNS; more than 100 µM in the assay on SK-MEL-2 melanoma; more than 100 µM with SK-OV-3 ovarian; more than 100 µM in the assay with T-47D breast. In addition, the TGI with TK-10 renal and in the assay with UO-31 renal was more than 100 µM each time.
In the case of `Cc1cc(NS(=O)(=O)c2ccc(Nc3c4ccccc4nc4ccc(C(=O)Nc5ccc(S(=O)(=O)N=C(N)N)cc5)cc34)cc2)no1`, the TGI with ACHN renal, in the assay with CAKI-1 renal, with CCRF-CEM leukemia, in the assay on EKVX NSCLC, in the assay with HCT-15 colon and in the assay with HOP-92 NSCLC was more than 100 µM throughout. In addition, the TGI in the assay with K-562 leukemia, in the assay on LOX IMVI melanoma, with MDA-MB-231 breast, with NCI/ADR-RES ovarian, with OVCAR-3 ovarian and in the assay with OVCAR-5 ovarian was more than 100 µM in each case. Moreover, the TGI with OVCAR-8 ovarian, in the assay on RXF 393 renal, in the assay on SF-539 CNS, in the assay on SK-MEL-2 melanoma, with SK-OV-3 ovarian and in the assay on T-47D breast was more than 100 µM throughout. The TGI in the assay with TK-10 renal and in the assay with UO-31 renal was more than 100 µM in each case.
As to `NC1=Nc2ccccc2Sc2nnc(-c3ccc(Cl)cc3)n21`, the TGI with ACHN renal is more than 100 µM; in the assay on CAKI-1 renal it was more than 100 µM; with CCRF-CEM leukemia, 56.2 µM; in the assay on EKVX NSCLC, more than 100 µM; with HCT-15 colon, more than 100 µM; in the assay with HOP-92 NSCLC it was more than 100 µM. For the same compound, the TGI was 35.7 µM in the assay on K-562 leukemia; more than 100 µM in the assay on LOX IMVI melanoma; 73.1 µM in the assay on MDA-MB-231 breast; more than 100 µM in the assay on NCI/ADR-RES ovarian; more than 100 µM in the assay with OVCAR-3 ovarian; more than 100 µM in the assay with OVCAR-5 ovarian. Besides, the TGI in the assay on OVCAR-8 ovarian, with RXF 393 renal, in the assay on SF-539 CNS, with SK-MEL-2 melanoma, with SK-OV-3 ovarian and with T-47D breast was more than 100 µM throughout. Also, the TGI in the assay with TK-10 renal and in the assay with UO-31 renal was more than 100 µM throughout.
Take `O=C1N[C@@H]([C@H](CCCCCO)OC(=O)c2ccccc2)CO1`: the TGI with ACHN renal, in the assay with CAKI-1 renal, in the assay with CCRF-CEM leukemia, in the assay with EKVX NSCLC, with HCT-15 colon and with HOP-92 NSCLC was more than 100 µM each time. Besides, the TGI in the assay on K-562 leukemia, in the assay with LOX IMVI melanoma, in the assay with MDA-MB-231 breast, in the assay on NCI/ADR-RES ovarian, in the assay on OVCAR-3 ovarian and in the assay on OVCAR-5 ovarian was more than 100 µM each time. For the same compound, the TGI in the assay with OVCAR-8 ovarian, with RXF 393 renal, in the assay with SF-539 CNS, in the assay on SK-MEL-2 melanoma, with SK-OV-3 ovarian and in the assay with T-47D breast was more than 100 µM each time. In addition, the TGI in the assay on TK-10 renal and in the assay with UO-31 renal was more than 100 µM in each case.
